Source: PubChem BioAssay AID608 (Sanford-Burnham Center for Chemical Genomics, 2007)
Values joined by “and” are separate entries in the source; they are usually repeats but may differ in a detail not shown here. Identical values can stand only once. Active and inactive are the calls of the source. How the calls were made is not given here.

Biological target: Peptidyl-prolyl cis-trans isomerase FKBP1A (Homo sapiens) (UniProt P62942)
Assay: FKBP12 binders, biophysical, NMR detection (AID 608)
Details: NMR binding, purified FKBP12

Sequence of Peptidyl-prolyl cis-trans isomerase FKBP1A (Homo sapiens) (P62942 whole entry, looked up): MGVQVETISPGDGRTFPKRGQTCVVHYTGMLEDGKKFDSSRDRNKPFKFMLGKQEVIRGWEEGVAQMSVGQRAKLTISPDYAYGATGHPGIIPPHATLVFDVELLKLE

Row | Compound | Kd
1 | C=C[C@@](C)(O)CCC1C(=C)C[C@H](OC(C)=O)C2C(C)(C)CCCC12C (stereo partly specified) | > 4 mM (inactive)
2 | COc1c2ccoc2cc2oc(=O)ccc12 | > 4 mM (inactive)
3 | CC[C@]12CCCN3CCc4c(n(c5ccccc45)[C@](O)(C(=O)OC)C1)[C@@H]32 | > 4 mM (inactive)
4 | Nc1ccc(-c2cn3c(n2)SCC3)cc1 | > 4 mM (inactive)
5 | c1ccc(SCc2nc(-c3ccncc3)no2)cc1 | 0.314 mM and 0.167 mM
6 | C(=C\c1ccccc1)/C=N/n1cnnc1 | > 4 mM (inactive)
7 | CCOC(=O)c1c(C)nc2ncccn12 | > 4 mM (inactive)
8 | NC(=O)c1c(Cl)nsc1-c1ccccc1Cl | > 4 mM (inactive)
9 | Cc1ccc(C(=O)Nc2nnc(-c3ccncc3)s2)o1 | > 4 mM (inactive)
10 | O=C(O)CCS(=O)(=O)c1ccccc1 | > 4 mM (inactive)
11 | Cn1nnc2cc(C(=O)NC3=NCCS3)ccc21 | > 4 mM (inactive)
12 | CNS(=O)(=O)c1cc(OC)ccc1OC | > 4 mM (inactive)
13 | COCC(=O)Nc1cccc2ccccc12 | > 4 mM (inactive)
14 | CC(C)CCCC(C)C1CCC2C3C[C@@H](O)[C@@]4(O)C[C@@H](O)CC[C@]4(C)C3CC[C@]12C (stereo partly specified) | > 4 mM (inactive)
15 | CC1(C)CC2(CCO1)NCCN1C(=O)CSC12 (stereo unspecified) | > 4 mM (inactive)
16 | COC(=O)C[C@@H]1C2(C)C(=O)[C@@H](CC3=C4CC(O)O[C@@H](c5ccoc5)[C@]4(C)CCC32)[C@H](O)C1(C)C (stereo partly specified) | > 4 mM (inactive)
17 | COc1cc(/C=C/C(=O)O)cc(OC)c1OC | > 4 mM (inactive)
18 | c1ccc(CNc2ncnc3nc[nH]c23)nc1 | > 4 mM (inactive)
19 | NC(=O)Cn1cnc2ccccc21 | > 4 mM (inactive)
20 | NC(=O)CN1CCC(c2nc3ccccc3[nH]2)CC1 | > 4 mM (inactive)
21 | O=S(=O)(O)c1nc2ccccc2[nH]1 | > 4 mM (inactive)
22 | CC1(C)C=Cc2cc3ccc(=O)oc3cc2O1 | > 4 mM (inactive)
23 | O=C1CCCN1C(=O)c1ccc(F)cc1 | > 4 mM (inactive)
24 | COC(=O)C[C@H]1C2(C)CC34OC5(C)O[C@@]6([C@H](OC)C(OC(=O)C(C)C)[C@]7(C)C(/C(=C(/OC)C(C)C)C(=O)O[C@H]7c7ccoc7)[C@@]6(O5)[C@H](OC)[C@@]3(OC)C2OC(C)=O)[C@]14C (stereo partly specified) | > 4 mM (inactive)

Row | Compound | Kd
25 | CC1NC(C(=O)O)Cc2c1[nH]c1ccccc21 (stereo unspecified) | > 4 mM (inactive)
26 | Cc1cc2ncc(C(=O)Nc3ccccc3)c(C)n2n1 | inactive
27 | CC(=O)OC/C=C(\C)CC/C=C(\C)CC/C=C(\C)CC/C=C(\C)CC/C=C(\C)CC/C=C(\C)CC/C=C(\C)CC/C=C(\C)CCC=C(C)C | > 4 mM (inactive)
28 | O=c1ccn(Cc2ccccc2)c(=O)n1Cc1ccccc1 | > 4 mM (inactive)
29 | Cc1cc(O)c(C=O)c(O)c1C(=O)O | > 4 mM (inactive)
30 | O=C(Nc1ccccc1N1CCCC1)c1cccnc1 | > 4 mM (inactive)
31 | Cc1ccc(C(=O)Nn2cnnc2)s1 | > 4 mM (inactive)
32 | Cn1cnc([N+](=O)[O-])c1Sc1ncnc2nc[nH]c12 | > 4 mM (inactive)
33 | CN1C2C[C@H](OC(=O)[C@H](CO)c3ccccc3)C[C@H]1[C@@H](O)C2 | > 4 mM (inactive)
34 | CC(=O)O[C@H]1C(=O)[C@@]2(C)C([C@H](OC(=O)c3ccccc3)[C@]3(O)C[C@H](OC(=O)[C@H](O)[C@@H](NC(=O)c4ccccc4)c4ccccc4)C(C)=C1C3(C)C)[C@]1(OC(C)=O)CO[C@@H]1C[C@@H]2O (stereo partly specified) | > 4 mM (inactive)
35 | c1ccc(-c2nnc3sc(-c4ccncc4)nn23)cc1 | > 4 mM (inactive)
36 | CC(=O)Oc1ccccc1N1C(=O)C=CC1=O | > 4 mM (inactive)
37 | O=C(Nc1ccccc1)c1cnc2n(c1=O)CCS2 | > 4 mM (inactive)
38 | O=c1c(O)cc([C@H]2Oc3cc(O)cc(O)c3C[C@H]2O)cc2c([C@H]3Oc4cc(O)cc(O)c4C[C@H]3O)cc(O)c(O)c12 | > 4 mM (inactive)
39 | COc1ccccc1-c1c(C)nn2c(C)c(C(C)=O)cnc12 | > 4 mM (inactive)
40 | O=C(NCc1ccco1)c1ccc(Br)s1 | > 4 mM (inactive)
41 | CC(=O)Nc1cc(S(=O)(=O)N(C)C)ccc1Cl | > 4 mM (inactive)
42 | O=C(O)c1ccc2ncccc2c1 | > 4 mM (inactive)
43 | CC(C)Oc1ccc(NC(N)=O)cc1 | > 4 mM (inactive)
44 | CP(C)(=O)CCC(=O)O | > 4 mM (inactive)
45 | O=C(Nc1ccc2c(c1)OCO2)c1c(F)cccc1F | > 4 mM (inactive)
46 | CCOC(=O)c1csc(N)n1 | > 4 mM (inactive)
47 | O=S(=O)(Nc1cccnc1Cl)c1ccccc1 | > 4 mM (inactive)
48 | N#CCc1nc2ccccc2s1 | > 4 mM (inactive)

Row | Compound | Kd
49 | CC(=O)Nc1ccc(Nc2nnc(C)c(=O)[nH]2)cc1 | > 4 mM (inactive)
50 | O=C(c1nc2ncccn2n1)N1CCc2ccccc2C1 | > 4 mM (inactive)
51 | Nc1ccc2c(c1)COc1ccccc1O2 | > 4 mM (inactive)
52 | Nc1ccc(CN2CCOCC2)cc1 | > 4 mM (inactive)
53 | CCSc1nc2ccccc2[nH]1 | > 4 mM (inactive)
54 | O=c1ccc2cc(O[C@@H]3O[C@H](CO)[C@@H](O)[C@H](O)[C@H]3O)c(O)cc2o1 | > 4 mM (inactive)
55 | O=C1CN(c2ccccc2)CC(=O)N1 | > 4 mM (inactive)
56 | O=C1CSC(=S)N1N1C(=O)C2C3C=CC(C3)C2C1=O (stereo unspecified) | > 4 mM (inactive)
57 | Oc1ccccc1N1CCCC1 | > 4 mM (inactive)
58 | Nc1cccc2nonc12 | > 4 mM (inactive)
59 | O=c1[nH]cc(S(=O)(=O)Nc2ccccc2)c(=O)[nH]1 | > 4 mM (inactive)
60 | O=C(O)C(O)C(O)C(O)C(O)C(=O)O (stereo unspecified) | > 4 mM (inactive)
61 | Cc1cc(=O)[nH]c(N)n1 | > 4 mM (inactive)
62 | Cc1nnc(N2CCN(Cc3ccccc3)CC2)[nH]c1=O | > 4 mM (inactive)
63 | CNc1nc(C)nc(-n2nc(C)cc2C)n1 | > 4 mM (inactive)
64 | O=C1NC(=O)/C(=C\c2ccncc2)S1 | > 4 mM (inactive)
65 | NCC1COc2ccccc2O1 (stereo unspecified) | > 4 mM (inactive)
66 | CC(C)Oc1ccc(C2CC(=O)NNC2=O)cc1 (stereo unspecified) | > 4 mM (inactive)
67 | O=C(Nc1cccnc1)c1c(F)cccc1F | > 4 mM (inactive)
68 | O=c1c(O)c(-c2ccccc2)oc2ccc3occc3c12 | > 4 mM (inactive)
69 | CCOc1ccc(C)cc1S(=O)(=O)n1ccc(C)n1 | > 4 mM (inactive)
70 | CC(C)C(C)/C=C/C(C)[C@H]1CCC2C3=CCC4CC(=O)CC[C@]4(C)C3CC[C@@]21C (stereo partly specified) | > 4 mM (inactive)
71 | NC(=O)NCCCC(N)C(=O)O (stereo unspecified) | > 4 mM (inactive)
72 | CC(=O)Oc1ccc(O)cc1 | > 4 mM (inactive)

Row | Compound | Kd
73 | CN1CCc2c(sc(N)c2C#N)C1 | > 4 mM (inactive)
74 | Cc1nc2sccn2c1C(=O)O | > 4 mM (inactive)
75 | O=C1c2ccccc2C(=O)c2c(O)c(O)cc(O)c21 | > 4 mM (inactive)
76 | NC(=O)c1ccccc1NC(=O)c1cccnc1 | > 4 mM (inactive)
77 | O=C(c1ccc(F)cc1)N1CCN(c2ncccn2)CC1 | > 4 mM (inactive)
78 | O=C(NCc1cccnc1)c1ccccn1 | > 4 mM (inactive)
79 | CC(=O)Nc1sccc1C(=O)NC(N)=O | > 4 mM (inactive)
80 | COc1ccccc1-c1nc(=S)[nH][nH]1 | > 4 mM (inactive)
81 | CC1CN(C(=O)c2sc3cccc(F)c3c2Cl)CC(C)O1 (stereo unspecified) | > 13.6 mM (inactive)
82 | CC(C)=CC(=O)Nc1ccccc1Br | > 4 mM (inactive)
83 | CN(C)C(=O)CSc1nc(N)cc(=O)[nH]1 | > 4 mM (inactive)
84 | CC(CC(=O)NN)C1(O)CCCCC1 (stereo unspecified) | > 4 mM (inactive)
85 | Cc1ccc(C(=O)n2cnnc2N)cc1C | > 4 mM (inactive)
86 | Cc1cc(C)n2nc(NCc3ccccc3)nc2n1 | > 4 mM (inactive)
87 | Cc1cc(NC(=O)c2ccc3c(c2)OCO3)no1 | > 4 mM (inactive)
88 | CCC(=O)NC(=S)Nc1ccc(O)cc1 | > 4 mM (inactive)
89 | Cc1nc2ccccc2c(=O)n1/N=C/c1ccco1 | > 4 mM (inactive)
90 | O=C(CSC1=NCCS1)N1CCc2ccccc21 | > 4 mM (inactive)
91 | NC(=O)CN1C(=O)c2cccc3cccc1c23 | > 4 mM (inactive)
92 | CC(=O)NS(=O)(=O)c1ccc(C)cc1 | > 4 mM (inactive)
93 | CO[C@H]1[C@@H](O)[C@@H](C)O[C@H](O[C@H]2CCC3(C)C4CCC5(C)[C@@H](C6=CC(=O)OC6)CC[C@]5(O)[C@@H]4CC[C@]3(O)C2)[C@@H]1O (stereo partly specified) | > 4 mM (inactive)
94 | Clc1ncnc2[nH]ncc12 | > 4 mM (inactive)
95 | CCc1ccc2oc(-c3cc(N)cc(C)c3O)nc2c1 | > 4 mM (inactive)
96 | CC(C)C1COc2cc3oc(=O)ccc3cc2O1 (stereo unspecified) | > 4 mM (inactive)

Row | Compound | Kd
97 | COc1ccc(Cl)cc1-c1n[nH]c(=S)n1C | > 4 mM (inactive)
98 | COc1c2c(cc3c1OCO3)CCN(C)C2 | > 4 mM (inactive)
99 | OC1CCN(c2nccc(C(F)(F)F)n2)CC1 | > 4 mM (inactive)
100 | O=C(/C=C(\O)c1ccccc1)c1ccccc1O | > 4 mM (inactive)
101 | CC(=O)c1c(C)nc(C)nc1NC(=O)C(C)C | > 4 mM (inactive)
102 | O=C(Nc1ccc2ccccc2c1)c1cnccn1 | > 4 mM (inactive)
103 | NC1C2CC3CC1CC(O)(C3)C2 (stereo unspecified) | > 4 mM (inactive)
104 | Cc1noc(C)c1C(=O)N1CCc2ccccc2C1 | > 4 mM (inactive)
105 | O=C(O)C1=Cc2ccccc2OC1 | > 4 mM (inactive)
106 | Cc1ccc(SCCN2C(=O)NC(C)(C)C2=O)cc1 | 0.27 mM
107 | S=c1nc(C2CC2)[nH]c2ccccc12 | > 4 mM (inactive)
108 | CCSc1nc(N)c(NC(=O)c2ccco2)c(=O)[nH]1 | > 4 mM (inactive)
109 | Cc1nc(-c2ccccc2)ncc1CO | > 4 mM (inactive)
110 | Cc1onc(-c2ccccc2)c1C(=O)Nc1ccncc1 | > 4 mM (inactive)
111 | Cc1cc(=O)cc(C)n1-c1ccccc1N | > 4 mM (inactive)
112 | CCn1cnc2sc(C(=O)O)c(C)c2c1=O | > 4 mM (inactive)
113 | O=C(/C=C/C=C/c1ccc2c(c1)OCO2)N1CCCCC1 | > 4 mM (inactive)
114 | CC(=O)N1CCN(S(=O)(=O)c2ccccc2)CC1 | > 4 mM (inactive)
115 | O=c1cc(O)nc(SCc2ccccc2)[nH]1 | > 4 mM (inactive)
116 | COC(=O)c1ccc2nc[nH]c2c1 | > 4 mM (inactive)
